Where two headings read alike, the source gives them in different places.
Experiments:
A2058 = test: MTT cytotoxicity assay, A2058; assay type: cell-based; conditions: Homo sapiens, A2058, 72 h, read-out: IC50 A2058
Description: (§1) Anticancer assays: Five tumor cell lines (MiaPaca-2 (CRL-1420), a carcinoma pancreatic […]; Hep G2 (HB-80665), a perpetual cell line which was derived from the liver tissue of a […] with a well-differentiated hepatocellular carcinoma; A549 (CCL-185), a carcinoma lung from […]; A2058 (CRL-11147), Human skin melanoma from an adult derived from lymph node and MCF-7 (HTB-22), a breast adenocarcinoma […]) were obtained from ATCC. The MTT (3-(4,5-dimethylthiazol-2-yl)-2,5-diphenyltetrazoliumbromide) colorimetric assay, which measures mitochondrial metabolic activity, was employed to estimate the amount of living cells. According to the huge amount of celles to be plated, SelecT (TAP Biosystems, Royston, UK), a cell culture robotic system was used to process ten thousand cells per well (for 72 h assay). Cells were seeded at a concentration of 1× 10^4 cells/well in 200 μl culture medium and incubated at 37 °C in 5% CO2. After 24 h, the automated liquid-handling system Biomek FX (Beckman Coulter, Pasadena, CA, USA) was used to replace the medium with a final volume of 200 μL and 1 μL of compound (dilution 1/200) and to add controls to the plates and which were then be incubated for 72 h. The test compounds were examined in triplicate with serial two-fold dilutions. After incubation, MTT solution was prepared at 5 mg/mL in PBS 1X and then diluted at 0.5 mg/mL in MEM without phenol red. The sample solution in wells was removed and 100 μL of MTT dye was added to each well. The plates were gently shaken and incubated for 3 h at 37 °C in 5% CO2 incubator. The supernatant was removed and 100 μL of DMSO 100% was added. The plates were gently shaken to solubilize theoriginated formazan and absorbance at 570 nm was read in a Victor2 Wallac spectrofluorometer (PerkinElmer, Waltham, MA, USA). IC50 values were calculated as the concentration that decreases 50% of the cell viability using Genedata Screener software (Genedata AG, Basel, Switzerland). Curve fitting followed the Smart Fit strategy with Hill model selection.

A-549 = test: MTT cytotoxicity assay, A-549; assay type: cell-based; conditions: Homo sapiens, read-out: IC50 A-549
Description: as §1

MCF-7 = test: MTT cytotoxicity assay, MCF-7; assay type: cell-based; conditions: Homo sapiens, MCF7, 72 h, read-out: IC50 MCF-7
Description: as §1

MiaPaca-2 = test: MTT cytotoxicity assay, MiaPaca-2; assay type: cell-based; conditions: Homo sapiens, read-out: IC50 MiaPaca-2
Description: as §1

HepG2 = test: MTT cytotoxicity assay, HepG2; assay type: cell-based; conditions: Homo sapiens, read-out: IC50 HepG2
Description: as §1

P. falciparum strain 3D7 = test: P. falciparum 3D7 lactate dehydrogenase assay; assay type: cell-based, Plasmodium falciparum; conditions: for IC50: read-out: IC50 against P. falciparum; for times more active than natural precursor quercetin 3-O-α-L-rhamnopyranoside (2) against P. falciparum: antiplasmodial activity, strain 3D7; for SI = IC50 HepG2 cell/IC50 P. falciparum: selectivity index, HepG2 vs P. falciparum
Procedure: P. falciparum 3D7 lactate dehydrogenase assay: Parasites of the P. falciparum strain 3D7 were grown in fresh group 0 positive human erythrocytes, obtained from the Centro Regional de Transfusion Sanguınea-SAS (Granada, Spain). This assay was performed in duplicate for each compound using a sixteen (16) point dose response curve (½ serial dilutions) with concentrations starting from 50 μM until 1.5 nM to determine the IC50s of the compounds. Adding 25 μL of P. falciparum 3D7 parasite culture (per well) containing parasitized red blood cells at 0.25% parasitaemia and 2% haematocrit in RPMI-1640, 5% Albumax II, 2% […] 0.3% glutamine and 150 μM hypoxanthine and incubated at 37 °C for 72 h with 5% CO2, 5% O2 and 95% N2. For negative and positive growth controls, 10 μM chloroquine and complete parasite growth medium were respectively used. The final readouts of the assay was done by measuring the absorbance of the reactions at 650 nm in an Envision plate reader (Perkin Elmer, USA) and the results analysed by Genedata software (GenedataAG, Basel, Switzerland), parasite growth was measured by LDH assay as previously described.
The natural compounds isolated from the leaves of A. zygia as well as their semi-synthetic derivatives were tested against Plasmodium falciparum (Table 1) using a microdilution method in liquid medium as previously described.

[1] = Plasmodium falciparum, 3D7, 72 h, strain 3D7, 72 h, LDH readout
[2] = Plasmodium falciparum, 3D7, 72 h

Row | IC50 (P. falciparum strain 3D7; [1]) [µM] | IC50 (P. falciparum strain 3D7; strain 3D7, 72 h, LDH readout) [µM] | SMILES | IC50 (A2058; MTT, 72 h) [µM] | IC50 (A-549; A549, MTT, 72 h) [µM] | IC50 (MCF-7; MTT, 72 h) [µM] | IC50 (MiaPaca-2; MIA PaCa-2, MTT, 72 h) [µM] | IC50 (HepG2; HepG2, MTT, 72 h) [µM] | times more active than natural precursor quercetin 3-O-α-L-rhamnopyranoside (2) against P. falciparum (P. falciparum strain 3D7) | IC50 (P. falciparum strain 3D7; [2]) [µM] | IC50 (A2058) [µM] | IC50 (A-549; A549, 72 h) [µM] | IC50 (MCF-7) [µM] | IC50 (MiaPaca-2; MIA PaCa-2, 72 h) [µM] | SI = IC50 HepG2 cell/IC50 P. falciparum (P. falciparum strain 3D7) | IC50 (HepG2; HepG2, 72 h) [µM]
1 | – | – | COc1cccc2c1C(=O)c1c(O)c3c(c(O)c1C2=O)C[C@@](O)(C(=O)CO)C[C@@H]3O[C@H]1C[C@H](N)[C@H](O)[C@H](C)O1 [Doxorubicin, reference compound] | < 7e-05 | < 7e-05 | < 7e-05 | < 7e-05 | < 7e-05 | – | – | – | – | – | – | – | –
2 | 7.47 ± 0.25 | 7.5 ± 0.25 | CC(=O)OC1C(C)OC(Oc2c(-c3ccc(O)c(O)c3)oc3cc(O)cc(O)c3c2=O)C(OC(C)=O)C1OC(C)=O (stereo not shown) [Compound 9] | 12.2 ± 0.25 | 34.8 ± 0.25 | 10.8 ± 0.25 | 17.4 ± 0.25 | 22.6 ± 0.25 | over 3 times | – | – | – | – | – | – | –
3 | > 100 | – | O=C(O)Cc1ccc(O)cc1OC1OC(CO)C(O)C(O)C1O [Compound 1, 2-O-β-D-glucopyranosyl-4-hydroxyphenylacetic acid] | 66.7 ± 0.25 | 121.2 ± 0.25 | 42.7 ± 0.25 | 30.3 ± 0.25 | 121.2 ± 0.25 | – | – | – | – | – | – | – | –
4 | 6.77 ± 0.25 | 6.8 ± 0.25 | CC(=O)Oc1cc(O)c2c(=O)c(OC3OC(C)C(OC(C)=O)C(OC(C)=O)C3OC(C)=O)c(-c3ccc(O)c(O)c3)oc2c1 (stereo not shown) [Compound 10] | – | 30.5 ± 0.25 | – | 64.9 ± 0.25 | 64.9 ± 0.25 | over 3 times | – | – | – | – | – | – | –
5 | – | – | CCN(CC)CCCC(C)Nc1ccnc2cc(Cl)ccc12 (stereo not shown) [Chloroquine, chloroquine, reference compound] | – | – | – | – | – | – | 0.00296 | – | – | – | – | – | –
6 | > 100 | – | C[C@@H]1O[C@@H](Oc2ccc(-c3oc4cc(O)cc(O)c4c(=O)c3O[C@@H]3O[C@@H](C)[C@H](O)[C@@H](O)[C@H]3O)cc2)[C@H](O)[C@H](O)[C@H]1O [Compound 5, kaempferol 3,4′-di-O-α-L-rhamnopyranoside] | 33.7 ± 0.25 | 33.7 ± 0.25 | 33.7 ± 0.25 | 16.8 ± 0.25 | 16.8 ± 0.25 | – | – | – | – | – | – | – | –
7 | > 100 | – | CC(=O)OCC1OC(Oc2cc(OC(C)=O)ccc2CC(=O)O)C(OC(C)=O)C(OC(C)=O)C1OC(C)=O (stereo not shown) [Compound 8] | 40.2 ± 0.25 | 20.1 ± 0.25 | 40.2 ± 0.25 | 18.5 ± 0.25 | 40.2 ± 0.25 | – | – | – | – | – | – | – | –
8 | – | – | C[C@@H]1O[C@@H](Oc2c(-c3ccc(O)c(O)c3)oc3cc(O)cc(O)c3c2=O)[C@H](O)[C@H](O)[C@H]1O [Compound 2, quercetin 3-O-α-L-rhamnopyranoside] | – | – | – | – | – | – | 25.1 ± 0.25 | 87.5 ± 0.25 | 89.5 ± 0.25 | 87.5 ± 0.25 | 87.5 ± 0.25 | (3.49) | 87.5 ± 0.25
9 | > 100 | – | CC(=O)OCC1OC(Oc2cc(O)ccc2CC(=O)O)C(OC(C)=O)C(OC(C)=O)C1OC(C)=O (stereo not shown) [Compound 7] | 37 ± 0.25 | 20.1 ± 0.25 | 37 ± 0.25 | 10 ± 0.25 | 37 ± 0.25 | – | – | – | – | – | – | – | –
10 | 19 ± 0.25 | – | C[C@@H]1O[C@@H](Oc2c(-c3ccc(O)cc3)oc3cc(O)cc(O)c3c2=O)[C@H](O)[C@H](O)[C@H]1O [Compound 3, kaempferol 3-O-α-L-rhamnopyranoside] | 46.4 ± 0.25 | 23.2 ± 0.25 | 46.4 ± 0.25 | 46.4 ± 0.25 | 23.2 ± 0.25 | – | – | – | – | – | – | (1.22) | –
11 | > 100 | – | C[C@@H]1O[C@@H](Oc2ccc(-c3oc4cc(O)cc(O)c4c(=O)c3O[C@@H]3O[C@@H](C)[C@H](O)[C@@H](O)[C@H]3O)cc2O)[C@H](O)[C@H](O)[C@H]1O [Compound 4, quercetin 3,4′-di-O-α-L-rhamnopyranoside] | 34.6 ± 0.25 | 34.6 ± 0.25 | 17.3 ± 0.25 | 17.3 ± 0.25 | 17.3 ± 0.25 | – | – | – | – | – | – | – | –

From PMC7076739, “Cytotoxycity and antiplasmodial activity of phenolic derivatives from Albizia zygia (DC.) J.F. Macbr. (Mimosaceae)” (BMC Complementary Medicine and Therapies, 2020)
